Measured values from US10633376B2, “Crystalline forms of JAK1-selective inhibitor, processes for preparation and use thereof” (Crystal Pharmaceutical (Suzhou) Co., Ltd., priority 2016, dated 2020).
Values after ≈ are worked out from the molar mass of the structure shown. “Also recorded” adds a separate entry of the source. Where two headings read alike, the source gives them in different places.

Tests used:
[1] = prior art patents; cited from earlier work
[2] = 92.5% humidity for 5 days and 10 days, XRPD; cited from earlier work
[3] = clinical trials by Gilead; cited from earlier work
[4] = Solubility comparison study, saturated solutions measured by HPLC; type: physicochemical; conditions: for Solubility in FaSSIF 1 h: FaSSIF pH=6.5, 1 h; for Solubility in FaSSIF 4 h: FaSSIF pH=6.5, 4 h; for Solubility in FaSSIF 24 h: FaSSIF pH=6.5, 24 h
Experimental: Saturated solutions of Form CS1, Form CS2 of the present disclosure and Pattern 4 in patent CN105960407A (hereinafter referred to as patent Pattern 4) were prepared in SGF (simulated gastric fluids), FeSSIF (fed state simulated intestinal fluids, pH=5.0), FaSSIF (fasted state simulated intestinal fluids, pH=6.5) and pure water. After equilibrated for 1 h, 4 h and 24 h, concentrations of the saturated solutions were measured by HPLC.

[5] = Mechanical stability study, XRPD before and after grinding; type: physicochemical
Source text: XRPD was applied to test the crystalline forms of Form CS2, Form CS3 and Pattern 4 in patent CN105960407A before and after grinding. The test results were shown in FIG. 20, FIG. 21 and FIG. 22.

[6] = Stability study of crystalline form on storage, XRPD; type: physicochemical; conditions: 3 weeks
Experimental: Form CS1 of the present disclosure was stored under 25° C./60% RH and 40° C./75% RH for 3 weeks. Form CS2 of the present disclosure was stored under 25° C./60% RH, 40° C./75% RH and 60° C./75% RH for 3 weeks.

[7] = Hygroscopicity by dynamic vapor sorption (DVS); type: physicochemical
Experimental: Dynamic Vapor Sorption (DVS) is measured via a SMS (Surface Measurement Systems Ltd.) intrinsic DVS instrument. Its control software is DVS-Intrinsic control software, and its analysis software is DVS-Intrinsic Analsis software. Typical Parameters for DVS test are as follows:
Gas and flow rate: N2, 200 mL/min
RH range: 0% RH to 95% RH
Dynamic vapor sorption (DVS) was applied to test hygroscopicity of Form CS2 and Pattern 4 in patent CN105960407A (hereinafter referred to as patent Pattern 4) on about 10 mg of samples. The weight gains at each relative humidity were recorded in a cycle of 0-95%-0 RH.

## O=C(Nc1nc2cccc(-c3ccc(CN4CCS(=O)(=O)CC4)cc3)n2n1)C1CC1 [Form H of free form]
[1]
  Solubility in water: solubility in water is 12.77 μg/mL.

## O=C(Nc1nc2cccc(-c3ccc(CN4CCS(=O)(=O)CC4)cc3)n2n1)C1CC1 [Form B of free form]
[2]
  Stability: Stability is poor. Sample was tested by XRPD after being
[1]
  Solubility in water: The solubility in water is 41.28 μg/mL. The yield is low,

## O=C(Nc1nc2cccc(-c3ccc(CN4CCS(=O)(=O)CC4)cc3)n2n1)C1CC1 [Form F of free form]
[1]
  Solubility in water: The solubility is low. The solubility in water is 50.98 μg/mL

## O=C(Nc1nc2cccc(-c3ccc(CN4CCS(=O)(=O)CC4)cc3)n2n1)C1CC1 [Filgotinib, N-[5-[4-[(1,1-dioxo-1-thiomorpholin-4-yl)methyl]phenyl][1,2,4]triazolo [1,5-a]pyridin-2-yl]cyclopropanecarboxamide]
[3]
  Anemia and abnormal increase in low density lipoprotein (LDL): does not cause an anemia and abnormal increase in low density lipoprotein (LDL)

## O=C(Nc1nc2cccc(-c3ccc(CN4CCS(=O)(=O)CC4)cc3)n2n1)C1CC1 [Pattern 4, reference compound]
[4]; listed as Patent Pattern 4
  Solubility in FaSSIF 1 h: 20 µg/mL (≈ 47 µM)
  Solubility in FaSSIF 4 h: 20 µg/mL (≈ 47 µM)
  Solubility in FaSSIF 24 h: 20 µg/mL (≈ 47 µM)
[4]; FeSSIF pH=5.0, 1 h, listed as Patent Pattern 4
  Solubility in FeSSIF 1 h: 30 µg/mL (≈ 70.5 µM)
[4]; FeSSIF pH=5.0, 4 h, listed as Patent Pattern 4
  Solubility in FeSSIF 4 h: 30 µg/mL (≈ 70.5 µM)
[4]; FeSSIF pH=5.0, 24 h, listed as Patent Pattern 4
  Solubility in FeSSIF 24 h: 30 µg/mL (≈ 70.5 µM)
[4]; SGF (pH=1.8), listed as Patent Pattern 4
  Solubility in SGF 1 h: 1020 µg/mL (≈ 2400 µM)
[4]; SGF (pH=1.8), 4 h, listed as Patent Pattern 4
  Solubility in SGF 4 h: 1070 µg/mL (≈ 2510 µM)
[4]; SGF (pH=1.8), 24 h, listed as Patent Pattern 4
  Solubility in SGF 24 h: 460 µg/mL (≈ 1080 µM)
[4]; pure water, listed as Patent Pattern 4
  Solubility in water 1 h: 20 µg/mL (≈ 47 µM)
[4]; pure water, 4 h, listed as Patent Pattern 4
  Solubility in water 4 h: 10 µg/mL (≈ 23.5 µM)
[4]; pure water, 24 h, listed as Patent Pattern 4
  Solubility in water 24 h: 10 µg/mL (≈ 23.5 µM)
[5]
  Mechanical stability (crystalline form after grinding): poor mechanical stability

## O=C(Nc1nc2cccc(-c3ccc(CN4CCS(=O)(=O)CC4)cc3)n2n1)C1CC1 [Form CS1]
[4]
  Solubility in FaSSIF 1 h: 120 µg/mL (≈ 282 µM)
  Solubility in FaSSIF 4 h: 110 µg/mL (≈ 259 µM)
  Solubility in FaSSIF 24 h: 120 µg/mL (≈ 282 µM)
[4]; SGF (pH=1.8)
  Solubility in SGF 1 h: 3230 µg/mL (≈ 7590 µM)
[4]; SGF (pH=1.8), 4 h
  Solubility in SGF 4 h: 3300 µg/mL (≈ 7760 µM)
[4]; SGF (pH=1.8), 24 h
  Solubility in SGF 24 h: 820 µg/mL (≈ 1930 µM)
[4]; fed state simulated intestinal fluid (FeSSIF), pH 5, fessif, thermodynamic from solid, FeSSIF pH=5.0, 1 h
  solubility at 1 h: 200 µg/mL (≈ 470 µM)
[4]; fed state simulated intestinal fluid (FeSSIF), pH 5, fessif, thermodynamic from solid, FeSSIF pH=5.0, 4 h, read-out: Solubility in FeSSIF 4 h
  solubility at 4 h: 200 µg/mL (≈ 470 µM)
[4]; fed state simulated intestinal fluid (FeSSIF), pH 5, fessif, thermodynamic from solid, FeSSIF pH=5.0, 24 h, read-out: Solubility in FeSSIF 24 h
  solubility at 24 h: 250 µg/mL (≈ 588 µM)
[4]; pure water
  Solubility in water 1 h: 120 µg/mL (≈ 282 µM)
[4]; pure water, 4 h
  Solubility in water 4 h: 90 µg/mL (≈ 212 µM)
[4]; pure water, 24 h
  Solubility in water 24 h: 210 µg/mL (≈ 494 µM)
[6]; 25° C./60% RH
  Solid form change: doesn't change; also recorded: No form change of Form CS1
[6]; 40° C./75% RH
  Solid form change: doesn't change; also recorded: No form change of Form CS1

## O=C(Nc1nc2cccc(-c3ccc(CN4CCS(=O)(=O)CC4)cc3)n2n1)C1CC1 [Form CS2]
[7]; 80% RH, Chinese Pharmacopoeia 2015 definition
  Hygroscopicity class: almost non-hygroscopic; also recorded: almost no hygroscopic
[7]; XRPD before and after DVS cycle 0-95%-0 RH
  Form change after DVS: no form change was observed
[4]
  Solubility in FaSSIF 1 h: 50 µg/mL (≈ 118 µM)
  Solubility in FaSSIF 4 h: 50 µg/mL (≈ 118 µM)
  Solubility in FaSSIF 24 h: 40 µg/mL (≈ 94 µM)
[4]; FeSSIF pH=5.0, 1 h
  Solubility in FeSSIF 1 h: 90 µg/mL (≈ 212 µM)
[4]; FeSSIF pH=5.0, 4 h
  Solubility in FeSSIF 4 h: 100 µg/mL (≈ 235 µM)
[4]; FeSSIF pH=5.0, 24 h
  Solubility in FeSSIF 24 h: 80 µg/mL (≈ 188 µM)
[4]; SGF (pH=1.8)
  Solubility in SGF 1 h: 1310 µg/mL (≈ 3080 µM)
[4]; SGF (pH=1.8), 4 h
  Solubility in SGF 4 h: 1320 µg/mL (≈ 3100 µM)
[4]; pure water
  Solubility in water 1 h: 40 µg/mL (≈ 94 µM)
[4]; pure water, 24 h
  Solubility in water 24 h: 40 µg/mL (≈ 94 µM)
[4]; pure water, water, thermodynamic from solid, pure water, 4 h, read-out: Solubility in water 4 h
  solubility at 4 h: 40 µg/mL (≈ 94 µM)
[4]; simulated gastric fluid (SGF), pH 1.8, simulated gastric fluid, thermodynamic from solid, SGF (pH=1.8), 24 h, read-out: Solubility in SGF 24 h
  solubility at 24 h: 560 µg/mL (≈ 1320 µM)
[6]; 25° C./60% RH
  Solid form change: doesn't change; also recorded: No form change of Form CS2
[6]; 40° C./75% RH
  Solid form change: doesn't change; also recorded: No form change of Form CS2
[6]; 60° C./75% RH
  Solid form change: doesn't change; also recorded: No form change of Form CS2
[5]
  Mechanical stability (crystalline form after grinding): better mechanical stabilities; also recorded: don't change after grinding; also recorded: without crystal transformation observed during grinding

## O=C(Nc1nc2cccc(-c3ccc(CN4CCS(=O)(=O)CC4)cc3)n2n1)C1CC1 [Form C of free form]
[2]
  Stability: Stability is poor. Sample was tested by XRPD after being
[1]
  Solubility in water: The solubility in water is 42.22 μg/mL. The yield is low

## O=C(Nc1nc2cccc(-c3ccc(CN4CCS(=O)(=O)CC4)cc3)n2n1)C1CC1 [Form D of free form]
[2]
  Stability: Stability is poor. XRPD is tested after being placed at
[1]
  Solubility in water: solubility in water is 55.26 μg/mL. The yield is low and is

## O=C(Nc1nc2cccc(-c3ccc(CN4CCS(=O)(=O)CC4)cc3)n2n1)C1CC1 [Form E of free form]
[2]
  Stability: Stability is poor. XRPD is tested after being placed at
